Reference: patent publication US20240174690A1, “ANNULATED 2-AMINO-3-CYANO THIOPHENES AND DERIVATIVES FOR THE TREATMENT OF CANCER” (BOEHRINGER INGELHEIM INTERNATIONAL GMBH, priority 2021, published 2024)
pIC50: −log10 of the molar value.

Tests used:
CYP3A4 = CYP3A4 (Homo sapiens (Human), UniProt P08684); assay: Mechanism based inhibition of CYP3A4 assay (MBI 3A4); type: in vitro ADME; details: hydroxy-midazolam formation after 30 min vs 0 min preincubation, 25 uM, human liver microsomes
Outline: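 Human CYP3A4 activity after 30 min vs 0 min preincubation with test compound; incubate then diluted 1:10 and midazolam added for a 15 min main incubation. Quenched with acetonitrile; hydroxy-midazolam quantified by LC/MS-MS and expressed as % of the 0 min preincubation formation.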

GP2D cells = assay: GP2D proliferation assay (120 h) (colorectal cancer, G12D); type: cell-based
Method: GP2D Proliferation Assay (120 h) (Colorectal Cancer, G12D)
GP2D cells (ATCC No. CRL-5807) are dispensed into white 384-well plates, flat and white bottom (Perkin Elmer, 6007680) at a density of 500 cells per well in 40 μl DMEM (Sigma, D6429)+1×GlutaMAX (Gibco, 35050038)+10% FCS (fetal calf serum). […] Compounds (10 mM stock in DMSO) are added at logarithmic dose series using the HP Digital Dispenser D300 (Tecan), including DMSO controls and normalizing for added DMSO. For the TO time point measurement, untreated cells are analyzed at the time of compound addition. Plates are incubated for 120 h, and cell viability is measured using CellTiter-Glo luminescent cell viability reagent (Promega product code G7570). Viability (stated as percent of control) is defined as relative luminescence units RLU of each well divided by the RLU of cells in DMSO controls. IC50 values are determined from viability measurements by non-linear regression using a four parameter model.

KRAS (WT)::SOS1 = KRAS (WT)::SOS1 (Homo sapiens (Human), UniProt P01116, C118S); assay: KRAS::SOS1 AlphaScreen binding assay, KRAS WT
Excerpt: This assay can be used to examine the potency with which compounds according to the invention binding to (mutated) KRAS inhibit the protein-protein interaction between SOS1 and (mutated) KRAS e.g., KRAS WT, KRAS G12C, KRAS G12D, KRAS G12V, KRAS G13D. […] Low IC50 values in this assay setting are indicative of strong inhibition of protein-protein interaction between SOS1 and KRAS:
These assays measure the inhibitory effect of compounds on KRAS mutant protein-protein interactions using the Alpha Screen technology by Perkin Elmer.
The following (mutant) enzyme forms of KRAS and interacting proteins are used in these assays at the given concentrations: • KRAS (G12D) 1-169, N-terminal 6His-tag, C-terminal avi-tag (Xtal BioStructures, Inc.); final assay concentration 10 nM and SOS1 564-1049, N-terminal 229 GST-tag, TEV cleavage site (Viva Biotech Ltd); final assay concentration 5 nM; • KRAS (G12C) 1-169, N-terminal 6His-tag for purification, cleaved off, C-terminal avi-tag, biotinylated, mutations: C51S, C80L, C118S (in house); final assay concentration 7.5 nM and SOS1 564-1049, N-terminal 229 GST-tag, TEV cleavage site (Viva Biotech Ltd); final assay concentration 5 nM; • KRAS (G12V) 1-169, N-terminal 6His-tag for purification, cleaved off, C-terminal avi-tag, biotinylated, TEV cleavage site, mutation: C118S, GDP loaded (in house); final assay concentration 10 nM and SOS1 564-1049, N-terminal 229 GST-tag, TEV cleavage site (Viva Biotech Ltd); final assay concentration 10 nM; • KRAS (G13D) 1-169, N-terminal 6His-tag for purification, cleaved off, C-terminal avi-tag, biotinylated, TEV cleavage site, mutation: C118S, GDP loaded (in house); final assay concentration 10 nM and SOS1 564-1049, N-terminal 229 GST-tag, TEV cleavage site (Viva Biotech Ltd); final assay concentration 10 nM; • KRAS (WT) 1-169, N-terminal 6His-tag for purification, cleaved off, C-terminal avi-tag, biotinylated, TEV cleavage site, mutation: C118S, GDP loaded (in house); final assay concentration 10 nM and SOS1 564-1049, N-terminal 229 GST-tag, TEV cleavage site (Viva Biotech Ltd); final assay concentration 10 nM.
Test compounds dissolved in DMSO are dispensed onto assay plates (Proxiplate 384 PLUS, white, PerkinElmer; 6008289) using an Access Labcyte Workstation with the Labcyte Echo 55×. For the chosen highest assay concentration of 100 μM, 150 nL of compound solution are transferred from a 10 mM DMSO compound stock solution. A series of eleven fivefold dilutions per compound are transferred to the assay plate, compound dilutions are tested in duplicates. DMSO are added as backfill to a total volume of 150 nL.
The assays run on a fully automated robotic system in a darkened room below 100 Lux. To 150 nl of compound dilution 10 μl of a mix including KRAS mutant protein, SOS1 (final assay concentrations see above) and GDP nucleotide (Sigma G7127; final assay concentration 10 μM) in assay buffer (1×PBS, 0.1% BSA, 0.05% Tween 20) are added into columns 1-24.
After 30 minutes incubation time 5 μl of Alpha Screen bead mix in assay buffer are added into columns 1-23. Bead mix consists of AlphaLISA Glutathione Acceptor Beads (PerkinElmer, Cat No AL109) and AlphaScreen Streptavidin Donor Beads (PerkinElmer Cat No 6760002) in assay buffer at a final assay concentration of 10 μg/ml each.
Plates are kept at room temperature in a darkened incubator. After an additional 60 minutes incubation time the signal is measured in a PerkinElmer Envision HTS Multilabel Reader using the AlphaScreen specs from PerkinElmer.
Each plate contains up to 16 wells of a negative control depending on the dilution procedure (platewise or serial) (DMSO instead of test compound; with KRAS mutant::SOS1 GDP mix and bead mix; column 23) and 16 wells of a positive control (DMSO instead of test compound; with KRAS mutant::SOS1 GDP mix w/o bead mix; column 24).
As internal control known inhibitors of KRAS mutant::SOS1 interaction can be measured on each compound plate. […]

Sequence of KRAS (WT)::SOS1 (P01116 other isoform, or with tags, fused parts or gaps C118S): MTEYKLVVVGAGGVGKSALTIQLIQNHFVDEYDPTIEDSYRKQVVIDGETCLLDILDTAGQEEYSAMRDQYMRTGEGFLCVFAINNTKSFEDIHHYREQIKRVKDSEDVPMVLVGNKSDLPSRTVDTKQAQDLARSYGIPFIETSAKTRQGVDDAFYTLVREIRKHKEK
Sequence of CYP3A4 (P08684 whole entry): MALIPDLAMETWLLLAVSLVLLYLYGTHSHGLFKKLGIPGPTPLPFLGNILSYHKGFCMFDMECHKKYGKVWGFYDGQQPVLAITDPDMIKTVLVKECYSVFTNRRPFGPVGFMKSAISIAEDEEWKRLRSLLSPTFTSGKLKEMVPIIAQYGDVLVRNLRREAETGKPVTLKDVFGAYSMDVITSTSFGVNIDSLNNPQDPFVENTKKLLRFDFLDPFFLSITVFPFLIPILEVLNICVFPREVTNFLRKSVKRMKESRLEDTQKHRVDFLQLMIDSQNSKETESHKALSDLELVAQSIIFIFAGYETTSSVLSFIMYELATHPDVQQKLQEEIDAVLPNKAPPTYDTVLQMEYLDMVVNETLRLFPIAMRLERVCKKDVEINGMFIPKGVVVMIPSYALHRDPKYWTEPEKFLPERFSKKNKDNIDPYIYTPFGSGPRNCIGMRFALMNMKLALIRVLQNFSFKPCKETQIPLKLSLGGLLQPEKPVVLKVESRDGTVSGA

## C[C@H](Oc1cc(N2CCNC[C@]23CCOC3)nc(-c2onc3c2CCC[C@@]32CCCc3sc(N)c(C#N)c32)n1)[C@@H]1CCCN1C [I-12]
CYP3A4
  MBI 3A4: 56%
GP2D cells
  pIC50: 9.00

## C[C@H](Oc1cc(N2CCNC[C@@]23CCOC3)nc(-c2onc3c2CCC[C@@]32CCCc3sc(N)c(C#N)c32)n1)[C@@H]1CCCN1C [I-13]
CYP3A4
  MBI 3A4: 48%

## C[C@H](Oc1cc(-n2cncc3ccnc2-3)nc(-c2onc3c2CCC[C@@]32CCCc3sc(N)c(C#N)c32)n1)[C@@H]1CCCN1C [I-14]
CYP3A4
  MBI 3A4: 83%

## C[C@H](Oc1cc(-c2cn(C)nn2)nc(-c2onc3c2CCC[C@@]32CCCc3sc(N)c(C#N)c32)n1)[C@@H]1CCCN1C [I-16]
GP2D cells
  pIC50: 6.17

## C[C@H](Oc1cc(-n2cncn2)nc(-c2onc3c2CCC[C@@]32CCCc3sc(N)c(C#N)c32)n1)[C@@H]1CCCN1C [I-18]
CYP3A4
  MBI 3A4: 58%

## C[C@H](Oc1cc(-n2cc(-c3cncs3)nn2)nc(-c2noc3c2CCC[C@@]32CCCc3sc(N)c(C#N)c32)n1)[C@@H]1CCCN1C [II-125]
KRAS (WT)::SOS1
  pIC50: 8.05
CYP3A4
  MBI 3A4: 68%

## C[C@H](Oc1cc(-n2cnc(C(=O)N(C)C)c2)nc(-c2noc3c2CCC[C@@]32CCCc3sc(N)c(C#N)c32)n1)[C@@H]1CCCN1C [II-126]
CYP3A4
  MBI 3A4: 56%

## C[C@H](Oc1cc(-c2ccn([C@H]3CCOC3)n2)nc(-c2noc3c2CCC[C@@]32CCCc3sc(N)c(C#N)c32)n1)[C@@H]1CCCN1C [II-127]
CYP3A4
  MBI 3A4: 74%

## C[C@H](Oc1cc(-c2ccn(Cc3ncco3)n2)nc(-c2noc3c2CCC[C@@]32CCCc3sc(N)c(C#N)c32)n1)[C@@H]1CCCN1C [II-128]
CYP3A4
  MBI 3A4: 60%

## C[C@H](Oc1cc(-c2ccn(C[C@H]3CCOC3)n2)nc(-c2noc3c2CCC[C@@]32CCCc3sc(N)c(C#N)c32)n1)[C@@H]1CCCN1C [II-129]
CYP3A4
  MBI 3A4: 74%

## C[C@H](Oc1cc(-n2cc(C(=O)N(C)C)nn2)nc(-c2noc3c2CCC[C@@]32CCCc3sc(N)c(C#N)c32)n1)[C@@H]1CCCN1C [II-132]
CYP3A4
  MBI 3A4: 70%

## C[C@H](Oc1cc(-c2cccc(C(N)=O)c2)nc(-c2noc3c2CCC[C@@]32CCCc3sc(N)c(C#N)c32)n1)[C@@H]1CCCN1C [II-133]
KRAS (WT)::SOS1
  pIC50: 8.10
GP2D cells
  pIC50: 6.52

## C[C@H](O)Cn1ncc(-c2cc(O[C@@H](C)[C@@H]3CCCN3C)nc(-c3noc4c3CCC[C@@]43CCCc4sc(N)c(C#N)c43)n2)n1 [II-134]
CYP3A4
  MBI 3A4: 76%

## C[C@H](Oc1cc(N2CCOC2=O)nc(-c2noc3c2CCC[C@@]32CCCc3sc(N)c(C#N)c32)n1)[C@@H]1CCCN1C [II-143]
GP2D cells
  pIC50: 7.23

## C[C@H](Oc1cc(-c2ccn(C)n2)nc(-c2noc3c2CCC[C@@]32CCCc3sc(N)c(C#N)c32)n1)[C@@H]1C[C@H](F)CN1C [II-144]
CYP3A4
  MBI 3A4: 60%
GP2D cells
  pIC50: < 6.00

## CO[C@@H]1C[C@@H]([C@H](C)Oc2cc(N3CCN(C)C4(COC4)C3)nc(-c3noc4c3CCC[C@@]43CCCc4sc(N)c(C#N)c43)n2)N(C)C1 [II-153]
CYP3A4
  MBI 3A4: 49%
GP2D cells
  pIC50: 7.85

## C[C@H](Oc1cc(-n2cc3c(n2)CNC3)nc(-c2noc3c2CCC[C@@]32CCCc3sc(N)c(C#N)c32)n1)[C@@H]1C[C@@H](F)CN1C [II-154]
GP2D cells
  pIC50: 7.41

## CC(C)N1CCCN(c2cc(-n3ccnc3)nc(-c3noc4c3CCC[C@@]43CCCc4sc(N)c(C#N)c43)n2)[C@@H](C)C1 [II-169]
CYP3A4
  MBI 3A4: 66%
GP2D cells
  pIC50: 5.73

## CC(C)N1CCCN(c2cc(-c3ccn(C)n3)nc(-c3noc4c3CCC[C@@]43CCCc4sc(N)c(C#N)c43)n2)[C@@H](C)C1 [II-170]
CYP3A4
  MBI 3A4: 70%

## C[C@H](Oc1cc(N2C[C@H](C)N(C)[C@@H](C)C2)nc(-c2noc3c2CCC[C@@]32CCCc3sc(N)c(C#N)c32)n1)[C@@H]1CCCN1C [II-173]
CYP3A4
  MBI 3A4: 82%
GP2D cells
  pIC50: 6.97

## CCN1CCN(c2cc(O[C@@H](C)[C@@H]3C[C@@H](F)CN3C)nc(-c3noc4c3CCC[C@@]43CCCc4sc(N)c(C#N)c43)n2)CC12CC2 [II-185]
GP2D cells
  pIC50: 7.82

## CO[C@H]1CCN(C)[C@@H]1[C@H](C)Oc1cc(N2CCN(C)C3(CC3)C2)nc(-c2noc3c2CCC[C@@]32CCCc3sc(N)c(C#N)c32)n1 [II-186]
GP2D cells
  pIC50: 8.70

## CO[C@@H]1C[C@@H]([C@H](C)Oc2cc(N3CCNC4(CC4)C3)nc(-c3noc4c3CCC[C@@]43CCCc4sc(N)c(C#N)c43)n2)N(C)C1 [II-187]
GP2D cells
  pIC50: 9.00

## C[C@H](Oc1cc(-n2ccc(C3(O)COC3)n2)nc(-c2noc3c2CCC[C@@]32CCCc3sc(N)c(C#N)c32)n1)[C@@H]1CCCN1C [II-189]
KRAS (WT)::SOS1
  pIC50: 8.40

## C[C@H](Oc1cc(-n2ccc(C(=O)N[C@H]3CCOC3)n2)nc(-c2noc3c2CCC[C@@]32CCCc3sc(N)c(C#N)c32)n1)[C@@H]1CCCN1C [II-193]
KRAS (WT)::SOS1
  pIC50: 8.22
CYP3A4
  MBI 3A4: 61%

## COCCNC(=O)c1ccn(-c2cc(O[C@@H](C)[C@@H]3CCCN3C)nc(-c3noc4c3CCC[C@@]43CCCc4sc(N)c(C#N)c43)n2)n1 [II-195]
KRAS (WT)::SOS1
  pIC50: 8.52
CYP3A4
  MBI 3A4: 56%

## CO[C@H]1CCN(C)[C@@H]1[C@H](C)Oc1cc(-n2ccc(C(=O)N[C@@H](C)c3ccccn3)n2)nc(-c2noc3c2CCC[C@@]32CCCc3sc(N)c(C#N)c32)n1 [II-196]
KRAS (WT)::SOS1
  pIC50: 8.22

## C[C@H](Oc1cc(-n2cc3ccn([C@@H]4CCOC4)c(=O)c3n2)nc(-c2noc3c2CCC[C@@]32CCCc3sc(N)c(C#N)c32)n1)[C@@H]1CCCN1C [II-203]
GP2D cells
  pIC50: 6.86

## C[C@H](Oc1cc(-n2cc3ccn(C[C@H]4CCOC4)c(=O)c3n2)nc(-c2noc3c2CCC[C@@]32CCCc3sc(N)c(C#N)c32)n1)[C@@H]1CCCN1C [II-204]
GP2D cells
  pIC50: 6.91

## C[C@H](Oc1cc(-n2ccc(-c3cn(C4CCOCC4)nn3)n2)nc(-c2noc3c2CCC[C@@]32CCCc3sc(N)c(C#N)c32)n1)[C@@H]1CCCN1C [II-210]
KRAS (WT)::SOS1
  pIC50: 8.15
